The record followed here is patent US12268690B2, “Treatments for mutations in acute myeloid leukemia” (OREGON HEALTH & SCIENCE UNIVERSITY, priority 2018, dated 2025).

In the assay the test system is freshly isolated mononuclear cells from AML samples. The experiment in a line: Ex vivo functional drug screen (MTS viability, AUC) on primary AML samples, compared by mutation or clinical group. Type of assay: cell-based, human.

As for `COc1cc2ncnc(Nc3ccc(F)c(Cl)c3)c2cc1OCCCN1CCOCC1` [Gefitinib], the “drug sensitivity mutant vs wild type (average difference in AUC; top left quadrant of volcano plot)” value by setting is: (FLT3_ITD) “gefitinib”; (FLT3_ITD:SRSF2) “Gefitinib”; (FLT3_ITD_IHD2) “gefitinib”; (NPM1) “Gefitinib”; (NPM1:DNMT3A) “Gefitinib”; (NPM1:FLT3_ITD) “gefitinib”. For the same compound, the “drug sensitivity mutant vs wild type (average difference in AUC; top left quadrant of volcano plot)” value is reported as “gefitinib” (NPM1:FLT3_ITD:DNMT3A), “gefitinib” (NPM1:IDH2) and “gefitinib” (NPM1:SRSF2).
For the compound `COc1cc(N2CCC(N3CCN(C)CC3)CC2)ccc1Nc1ncc(Cl)c(Nc2ccccc2S(=O)(=O)C(C)C)n1` [NVP-TAE684], the “drug sensitivity mutant vs wild type (average difference in AUC; top left quadrant of volcano plot)” value is listed as “NVP-TAE684” (FLT3_ITD); “NVP-TAE684” (FLT3_ITD:DNMT3A); “nvp-TAE684” (FLT3_ITD:FLT3); “nvp-TAE684” (FLT3_ITD:RUNX1); “nvp-tae684” (FLT3_ITD:TET2); “Nvp-TAE684” (FLT3_ITD_IHD2). Besides, the “drug sensitivity mutant vs wild type (average difference in AUC; top left quadrant of volcano plot)” value reads like this: (IDH2) “NVP-TAE684”; (IDH2:FLT3) “NVP-TAE684”; (NPM1) “NVP-TAE684”; (NPM1:FLT3) “NVP-TAE684”; (NPM1:FLT3_ITD) “nvp-tae684”; (NPM1:FLT3_ITD:DNMT3A) “NVP-TAE684”. Moreover, the “drug sensitivity mutant vs wild type (average difference in AUC; top left quadrant of volcano plot)” value (NPM1:IDH2) is “NVP-TAE684”, the “drug sensitivity mutant vs wild type (average difference in AUC; top left quadrant of volcano plot)” value (NPM1:SRSF2) is recorded as “nvp-TAE684” and the “drug sensitivity mutant vs wild type (average difference in AUC; top left quadrant of volcano plot)” value (NPM1:SRSF2:IDH2) is on record as “NVP-”.
For `COc1c(Cl)cc2c([nH]c3cnccc32)c1NC(=O)c1cccnc1C` [MLN120B], the “drug sensitivity mutant vs wild type (average difference in AUC; top left quadrant of volcano plot)” value by setting is: (NPM1:IDH2) “MLN120B”; (NPM1:SRSF2) “MLN120B”.
For the compound `CCCS(=O)(=O)Nc1ccc(F)c(C(=O)c2c[nH]c3ncc(Cl)cc23)c1F` [PLX-4720, N-(3-(5-chloro-1H-pyrrolo[2,3-b]pyridine-3-carbonyl)-2,4-difluorophenyl)propane-1-sulfonamide], the “drug sensitivity mutant vs wild type (average difference in AUC; top left quadrant of volcano plot)” value (CBFB.MYH11) is recorded as “PLX-4720”.
Turning to `Clc1ccc(Nc2nnc(Cc3ccncc3)c3ccccc23)cc1` [Vatalanib], the “drug sensitivity mutant vs wild type (average difference in AUC; top left quadrant of volcano plot)” value reads like this: (FLT3_ITD) “vatalanib”; (FLT3_ITD:ASXL1) “vatalanib”; (MLLT3.KMT2A) “Vatalanib”; (NPM1:FLT3_ITD) “vatalanib”; (SMC1A) “Vatalanib”.
